Read-outs that look alike come from different tables or passages of the source.
Tests used:
Caco-2 cells = assay: Caco-2 membrane permeability / bi-directional transport (Papp); assay type: in vitro ADME, human; conditions: apical to basolateral, 10 μM, 37° C.
Description: (§1) Determination of membrane permeability in all examples described herein was accomplished by the following procedure. This procedure is also used to determine whether a given prodrug falls within the scope of those claims given herein which relate to membrane permeability.
(§2) DMEM was equilibrated as a transport buffer in 37° C. water bath an hour before experiment. The cells were then equilibrated in transport buffer for 1 hr at 37° C.
(§3) Dosing solution (10 μM) was prepared by adding a 20 μL aliquot of a 10 mM stock solution of the prodrug to 20 mL of transport buffer.
(§4) Transport buffer was removed from both apical and basolateral compartment of filters. […] […] Fresh transport buffer (400 μL) was added back to the basolateral compartment, and the fluid was thoroughly mixed.
(§5) Lucifer yellow (LY) was used as a paracellular permeability reference standard to determine integrity of cell layers used in the experiments. LY transport in the apical to basolateral direction was carried out in the same manner as described above. Fluorescence level in basolateral fluid sampled at 5, 20, and 60 min post dose was determined using Fluostar Galaxy (BMG Labtechnologies, Durham, N.C.) at excitation/emission wavelengths of 485/520 nm. A standard curve covering the range from 0.002 to 0.5 mg/mL is constructed to quantify the amount of LY in the transport sample to calculate permeability coefficient (Papp).

[1] = Pharmacokinetics in rats after oral or intravenous administration; assay type: in vivo, rats (Sprague-Dawley); design: key to Rat T1/2 Prodrug: NC: plasma concentration of prodrug was too low to calculate half-life, or undetected; Rat T1/2 PPI: unit not given here; conditions: oral, parenthesis = standard deviation; for Rat T1/2 Prodrug: systemic half-life of intact prodrug; for Rat T1/2 PPI: systemic half-life of the proton pump inhibitor
Description: (§6) Blood concentrations of the compounds omeprazole, lansoprazole, pantoprazole, rabeprazole, and test compounds were quantified using an achiral liquid chromatography tandem mass spectrometry method (LC-MS/MS). Systemic pharmacokinetic parameters were determined for omeprazole or lansoprazole using non-compartmental analysis in Watson® version 6.3, available from InnaPhase Corporation, Philadelphia, Pa.

[2] = Pharmacokinetics in dogs after oral or intravenous administration; assay type: in vivo, dogs (beagle); design: key to Dog T1/2 Prodrug: NC: plasma concentration of prodrug was too low to calculate half-life, or undetected; conditions: for Dog T1/2 Prodrug / Dog T1/2 PPI: oral, parenthesis = standard deviation; for Dog T1/2 Prodrug: systemic half-life of intact prodrug; for Dog T1/2 PPI: systemic half-life of the proton pump inhibitor; for t1/2: systemic half-life of PPI in dogs after oral administration
Description: as §6

[3] = Caco-2 membrane permeability / bi-directional transport (Papp); assay type: in vitro ADME, human; conditions: human, Caco-2 cells
Description: as §1, §2, §3, §4, §5

MDR1 = assay: MDR1-MDCK bi-directional transport (Papp); assay type: in vitro ADME; conditions: dog, MDR1-MDCK cells
Text: as §1
• Test System: Cultured Caco-2 cells and MDR1-MDCK cells • Seeding Density: 2×10^5 cells/cm^2 in Costar 12 well Transwell™plates • Culture Age: 17-21 days post seeding for Caco-2 cells, 2-3 days post seeding for MDR1-MDCK cells • Source: American Type Culture Collection, Manassas, Va. […]
The apparent permeability coefficient (Papp, cm/sec), otherwise known herein as the membrane permeability, is determined from the following relationship: […]
The transport rate J, is calculated as the slope of the linear regression fit for the transport amount over time data using Microsoft Excel® 97 SR-2 (Microsoft Corp. Redmond, Wash.),
Lucifer yellow (LY) was used as a paracellular permeability reference standard to determine integrity of cell layers used in the experiments. […] Fluorescence level in basolateral fluid sampled at 5, 20, and 60 min post dose was determined using Fluostar Galaxy (BMG Labtechnologies, Durham, N.C.) at excitation/emission wavelengths of 485/520 nm. […]

[4] = somewhat buffer dependent, Kromer et al., Ekpe et al., cited from earlier work
[5] = read-out: Ratio Papp BA/Papp AB

| SMILES | Permeability (Caco-2 cells) [×10⁻⁶ cm/s] | Rat T1/2 Prodrug [1] | Rat T1/2 PPI [1] | Dog T1/2 Prodrug [2] | Dog T1/2 PPI [2] | t1/2 [2] [min] | also measured |
| --- | --- | --- | --- | --- | --- | --- | --- |
| Cc1c(OCC(F)(F)F)ccnc1C[S+]([O-])c1nc2ccccc2n1S(=O)(=O)c1ccc(OCC(=O)O)cc1 (stereo not drawn) [Compound 10] |  |  |  | NC | 0.989 (0.307) |  |  |
| Cc1c(OCC(F)(F)F)ccnc1C[S+]([O-])c1nc2ccccc2n1S(=O)(=O)c1ccc(OCC(C)(C)C(=O)O)cc1 (stereo not drawn) [Compound 11] |  | NC | 0.933 (1.009) | NC | 0.873 (0.288) |  |  |
| Cc1c(OCC(F)(F)F)ccnc1C[S+]([O-])c1nc2ccccc2n1S(=O)(=O)c1ccc(CC(=O)O)c(CC(=O)O)c1 (stereo not drawn) [Compound 12] |  |  |  | NC | 55.9 min |  |  |
| Cc1c(OCC(F)(F)F)ccnc1C[S+]([O-])c1nc2ccccc2n1S(=O)(=O)c1ccc(CC(=O)O)cc1C(C)C (stereo not drawn) [Compound 15] |  |  |  | NC | 55.4 min |  |  |
| COc1ccc2[nH]c([S+]([O-])Cc3ncc(C)c(OC)c3C)nc2c1 (stereo not drawn) [Omeprazole] |  |  |  |  |  |  | Papp A→B at 60 min, 10 μM ([3]; A to B, 10 μM): 12.6 ×10⁻⁶ cm/s; Papp B→A at 60 min, 10 μM ([3]; B to A, 10 μM): 16.3 ×10⁻⁶ cm/s; efflux ratio at 60 min, 10 µM [3, 5]: 1.29; Papp B→A at 60 min, 10 μM (MDR1; B to A, 10 μM): 17.1 ×10⁻⁶ cm/s; efflux ratio at 60 min, 10 µM (MDR1; [5]): 1.52; typical half-life (stability) ([4]; pH 5): about 1 hour; typical half-life (stability) ([4]; pH 7): about 40 hours |

Continued, in another order:

| Permeability (Caco-2 cells) [×10⁻⁶ cm/s] | Rat T1/2 Prodrug [1] | Rat T1/2 PPI [1] | Dog T1/2 Prodrug [2] | Dog T1/2 PPI [2] | t1/2 [2] [min] | SMILES | also measured |
| --- | --- | --- | --- | --- | --- | --- | --- |
| 0.16 | NC | 1.93 (1.41) | 12.4 min | 53.6 min | 53.4 | Cc1c(OCC(F)(F)F)ccnc1C[S+]([O-])c1nc2ccccc2n1S(=O)(=O)c1cccc(C(=O)O)c1 (stereo not drawn) [Compound 7] |  |
| 0.23 | NC | 1.80 (1.20) | NC | 64.8 min | 66 | COc1ccc(S(=O)(=O)n2c([S+]([O-])Cc3nccc(OCC(F)(F)F)c3C)nc3ccccc32)cc1C(=O)O (stereo not drawn) [Compound 8] |  |
| 0.34 | NC | 0.341 (0.151) | NC | 53.6 min | 53.4 | Cc1c(OCC(F)(F)F)ccnc1C[S+]([O-])c1nc2ccccc2n1S(=O)(=O)c1ccc(CC(=O)O)cc1 (stereo not drawn) [Compound 9] |  |
|  | NC | 2.35 (1.22) | 7.32 min | 106 min |  | Cc1ccc(C(=O)O)cc1S(=O)(=O)n1c([S+]([O-])Cc2nccc(OCC(F)(F)F)c2C)nc2ccccc21 (stereo not drawn) [Compound 13] |  |
|  |  | 0.536 (0.217) | 7.08 min | 83.4 min |  | COc1ccc(C(=O)O)cc1S(=O)(=O)n1c([S+]([O-])Cc2nccc(OCC(F)(F)F)c2C)nc2ccccc21 (stereo not drawn) [Compound 14] |  |

— patent US20100298205A1, “METHODS AND COMPOSITIONS FOR THE TREATMENT OF CONDITIONS RELATED TO GASTRIC ACID SECRETION” (priority 2004, published 2010)
